Data: PubChem BioAssay AID2060495 (Molecular Pharmacology Branch, DTP, NCI, 2025)

Test system: 521955-158-R2-J5-PDC complex spheroid viability
Experiment: Anticancer human tumor 521955-158-R2-J5-PDC patient-derived pancreatic carcinoma cell line growth inhibition [GQUAD]
Settings: for IC50: curve of first compound; for viability, T/C: stronger effect = lower value; active = viability on the fitted dose curve at most 10% of control; inactive = the rest
Outline: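 Multi-cell-type spheroids of tumor cells with HUVEC and mesenchymal stem cells, treated with drug combinations. Concentrations descend in half-log steps from near clinical Cmax, or from 10 microM where Cmax is unknown; viability read-out.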

[1] = second compound 0.0316 µM, first compound 0.000999 µM
[2] = second compound 0.0316 µM, first compound 0.00316 µM
[3] = second compound 0.0316 µM, first compound 0.00999 µM
[4] = second compound 0.0316 µM, first compound 0.0316 µM
[5] = second compound 0.0316 µM, first compound 0.0999 µM
[6] = second compound 0.0316 µM, first compound 0.316 µM
[7] = second compound 0.1 µM, first compound 0.000999 µM
[8] = second compound 0.1 µM, first compound 0.00316 µM
[9] = second compound 0.1 µM, first compound 0.00999 µM
[10] = second compound 0.1 µM, first compound 0.0316 µM
[11] = second compound 0.1 µM, first compound 0.0999 µM
[12] = second compound 0.1 µM, first compound 0.316 µM
[13] = second compound 0.316 µM, first compound 0.000999 µM
[14] = second compound 0.316 µM, first compound 0.00316 µM
[15] = second compound 0.316 µM, first compound 0.00999 µM
[16] = second compound 0.316 µM, first compound 0.0316 µM
[17] = second compound 0.316 µM, first compound 0.0999 µM
[18] = second compound 0.316 µM, first compound 0.316 µM
[19] = second compound 1 µM, first compound 0.000999 µM
[20] = second compound 1 µM, first compound 0.00316 µM
[21] = second compound 1 µM, first compound 0.00999 µM
[22] = second compound 1 µM, first compound 0.0316 µM
[23] = second compound 1 µM, first compound 0.0999 µM
[24] = second compound 1 µM, first compound 0.316 µM
[25] = second compound 3.16 µM, first compound 0.000999 µM
[26] = second compound 3.16 µM, first compound 0.00316 µM
[27] = second compound 3.16 µM, first compound 0.00999 µM
[28] = second compound 3.16 µM, first compound 0.0316 µM
[29] = second compound 3.16 µM, first compound 0.0999 µM
[30] = second compound 3.16 µM, first compound 0.316 µM
[31] = second compound 10 µM, first compound 0.000999 µM
[32] = second compound 10 µM, first compound 0.00316 µM
[33] = second compound 10 µM, first compound 0.00999 µM
[34] = second compound 10 µM, first compound 0.0316 µM
[35] = second compound 10 µM, first compound 0.0999 µM
[36] = second compound 10 µM, first compound 0.316 µM
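Also: spheroids exposed to agents for one week before reading.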
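For viability, T/C in this document: 100% = DMSO vehicle control viability.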

Cc1[nH]c2ccccc2c1CCNCc1ccc(/C=C/C(=O)NO)cc1 + CN(C)c1ccc(Nc2c3ccc(NC(=O)CCN4CCCC4)cc3nc3cc(NC(=O)CCN4CCCC4)ccc23)cc1
119 nM: IC50 (second compound 3.16 µM)
180 nM: IC50 (second compound 1 µM)
156 nM: IC50 (second compound 0.316 µM)
inactive: viability, T/C [1] 132% | viability, T/C [2] 110% | viability, T/C [3] 133% | viability, T/C [4] 109% | viability, T/C [5] 72.3% | viability, T/C [6] 23.4% | viability, T/C [7] 113% | viability, T/C [8] 132% | viability, T/C [9] 128% | viability, T/C [10] 121% | viability, T/C [11] 54.8% | viability, T/C [12] 19.7% | viability, T/C [13] 105% | viability, T/C [14] 125% | viability, T/C [15] 123% | viability, T/C [16] 90.8% | viability, T/C [17] 68.7% | viability, T/C [18] 24.4% | viability, T/C [19] 107% | viability, T/C [20] 114% | viability, T/C [21] 134% | viability, T/C [22] 114% | viability, T/C [23] 82.6% | viability, T/C [24] 19% | viability, T/C [25] 91.7% | viability, T/C [26] 116% | viability, T/C [27] 119% | viability, T/C [28] 97% | viability, T/C [29] 56.9% | viability, T/C [30] 13.2% | viability, T/C [31] 70.7% | viability, T/C [32] 103% | viability, T/C [33] 79.3% | viability, T/C [34] 82.6% | viability, T/C [35] 33.3%
117 nM: IC50 (second compound 0.1 µM)
168 nM: IC50 (second compound 0.0316 µM)
active: viability, T/C [36] 3.21%
67.6 nM: IC50 (second compound 10 µM)

Cn1ncnc1[C@H]1c2n[nH]c(=O)c3cc(F)cc(c23)N[C@@H]1c1ccc(F)cc1 + Cc1cnc(CNC(=O)c2c(=O)c3ccc(N4CCCN(C)CC4)nc3n3c2sc2ccccc23)cn1
< 0.999 nM: IC50 (second compound 0.316 µM) | IC50 (second compound 1 µM) | IC50 (second compound 3.16 µM) | IC50 (second compound 10 µM)
inactive: viability, T/C [1] 85.8% | viability, T/C [2] 70.8% | viability, T/C [3] 67.1% | viability, T/C [4] 62% | viability, T/C [5] 53.9% | viability, T/C [6] 57.5% | viability, T/C [7] 62.3% | viability, T/C [8] 77.7% | viability, T/C [9] 54.8% | viability, T/C [10] 48.2% | viability, T/C [11] 54.2% | viability, T/C [12] 55.5% | viability, T/C [13] 44.1% | viability, T/C [14] 48.6% | viability, T/C [15] 44.7% | viability, T/C [16] 34.2% | viability, T/C [17] 31.3% | viability, T/C [18] 24.3% | viability, T/C [19] 26.8% | viability, T/C [20] 25.1% | viability, T/C [21] 23.1% | viability, T/C [22] 20% | viability, T/C [23] 21% | viability, T/C [24] 16.6% | viability, T/C [25] 16% | viability, T/C [26] 19.6% | viability, T/C [27] 20.8% | viability, T/C [28] 20.4% | viability, T/C [29] 15.3% | viability, T/C [30] 14% | viability, T/C [31] 20.7% | viability, T/C [32] 15.7% | viability, T/C [33] 21.8% | viability, T/C [34] 19.8% | viability, T/C [35] 15.7% | viability, T/C [36] 17.2%
316 nM: IC50 (second compound 0.1 µM)
> 316 nM: IC50 (second compound 0.0316 µM)

CCc1c2c(nc3ccc(O)cc13)-c1cc3c(c(=O)n1C2)COC(=O)[C@]3(O)CC + Cc1cnc(CNC(=O)c2c(=O)c3ccc(N4CCCN(C)CC4)nc3n3c2sc2ccccc23)cn1
inactive: viability, T/C [1] 51.5% | viability, T/C [2] 15.3% | viability, T/C [7] 32.7% | viability, T/C [8] 18.6% | viability, T/C [9] 12.7% | viability, T/C [13] 25.2% | viability, T/C [14] 15.8% | viability, T/C [15] 12.8% | viability, T/C [19] 17.1% | viability, T/C [20] 13.5% | viability, T/C [25] 13.7% | viability, T/C [31] 12%
1.04 nM: IC50 (second compound 0.0316 µM)
< 0.999 nM: IC50 (second compound 0.1 µM) | IC50 (second compound 0.316 µM) | IC50 (second compound 1 µM) | IC50 (second compound 3.16 µM) | IC50 (second compound 10 µM)
active: viability, T/C [3] 11.1% | viability, T/C [4] 6.45% | viability, T/C [5] 6.82% | viability, T/C [6] 2.28% | viability, T/C [10] 6% | viability, T/C [11] 4.68% | viability, T/C [12] 1.38% | viability, T/C [16] 5.79% | viability, T/C [17] 4.66% | viability, T/C [18] 0.47% | viability, T/C [21] 7.77% | viability, T/C [22] 1.4% | viability, T/C [23] 0.12% | viability, T/C [24] 0.1% | viability, T/C [26] 9.61% | viability, T/C [27] 3.83% | viability, T/C [28] 0.1% | viability, T/C [29] 0.1% | viability, T/C [30] 0.14% | viability, T/C [32] 9.68% | viability, T/C [33] 3.64% | viability, T/C [34] 0.13% | viability, T/C [35] 0.17% | viability, T/C [36] 0.21%
